From ChEMBL document CHEMBL5126576, “From tryptophan to novel mitochondria-disruptive agent, synthesis and biological evaluation of 1,2,3,6-tetrasubstituted carbazoles” (Eur J Med Chem, 2022)
Activity calls are given as the source filed them.

Experiments:
HCT-116 [1] = assay: Antiproliferative activity against human HCT-116 cells after 72 hrs by MTT assay; assay type: functional, cell-based; settings: HCT-116, 72 h
A549 [2] = assay: Antiproliferative activity against human A549 cells after 72 hrs by MTT assay; assay type: functional, cell-based; settings: A549, 72 h
MCF7 = assay: Antiproliferative activity against human MCF7 cells after 72 hrs by MTT assay; assay type: functional, cell-based; settings: MCF7, 72 h
U2OS [3] = assay: Antiproliferative activity against human U2OS cells after 72 hrs by MTT assay; assay type: functional, cell-based
HepG2 = assay: Antiproliferative activity against human HepG2 cells after 72 hrs by MTT assay; assay type: functional, cell-based; settings: HepG2, 72 h
[4] = Antiproliferative activity against human HEK293 cells after 72 hrs by MTT assay; assay type: toxicity, cell-based
U2OS [5] = assay: Inhibition of colony formation in human U2OS cells at 0.5 to 10 uM measured after 24 hrs crystal violet staining based assay; assay type: functional, cell-based; settings: dose 0.5-10 µM
[6] = Drug uptake in human HCT-116 cells assessed as accumulation in lipid droplets at IC50 measured after 2 hr by immunofluorescence analysis; assay type: ADME, cell-based; settings: hct-116, 2 h
HCT-116 [7] = assay: Inhibition of colony formation in human HCT-116 cells at 0.5 to 10 uM measured after 24 hrs crystal violet staining based assay; assay type: functional, cell-based; settings: dose 0.5-10 µM
HCT-116 [8] = assay: Inhibition of cell migration in human HCT-116 cells at 5 to 10 uM measured after 24 hrs by wound healing assay; assay type: functional, cell-based; settings: dose 5-10 µM
HCT-116 [9] = assay: Inhibition of cell migration in human HCT-116 cells at 10 uM measured after 60 hrs by wound healing assay relative to control; assay type: functional
U2OS [10] = assay: Inhibition of cell migration in human U2OS cells at 5 to 10 uM measured after 24 to 48 hrs by wound healing assay; assay type: functional, cell-based; settings: dose 5-10 µM, time 24-48 hrs
HCT-116 [11] = assay: Induction of apoptosis in human HCT-116 cells assessed as early and late apoptotic cells at IC50 measured after 24 hrs by Annexin-V-FITC/propidium iodide staining based flow cytometry; assay type: functional, cell-based
HCT-116 [12] = assay: Induction of apoptosis in human HCT-116 cells assessed as necrotic cells at IC50 measured after 48 hrs by Annexin-V-FITC/propidium iodide staining based flow cytometry relative to control; assay type: functional
HCT-116 [13] = assay: Induction of apoptosis in human HCT-116 cells assessed as increase in caspase 3/7 activity at IC50 measured after 6 to 48 hrs by […] based flow cytometry; assay type: functional, cell-based; settings: time 6-48 hrs
HCT-116 [14] = assay: Induction of reactive oxygen species generation in human HCT116 cells at 15 uM after 24 hrs by DCFH-DA staining based assay relative to control; assay type: functional
U2OS [15] = assay: Induction of reactive oxygen species generation in human U2OS cells by DCFH-DA staining based assay; assay type: functional, cell-based; settings: time 1-24 hrs
HCT-116 [16] = assay: Induction of mitochondrial membrane potential loss in human HCT116 cells assessed as green fluorescence intensity by JC1 staining-based flow cytometry analysis; assay type: functional, cell-based
U2OS [17] = assay: Induction of mitochondrial membrane potential loss in human U2OS cells assessed as green fluorescence intensity by JC1 staining-based flow cytometry analysis; assay type: functional, cell-based
HCT-116 [18] = assay: Induction of mitochondrial morphological changes in human HCT-116 cells assessed as short circular-shaped mitochondria measured after 6 hrs by confocal microscopic analysis; assay type: functional, cell-based
U2OS [19] = assay: Induction of mitochondrial morphological changes in human U2OS cells assessed as short circular-shaped mitochondria measured after 6 hrs by confocal microscopic analysis; assay type: functional, cell-based
HCT-116 [20] = assay: Induction of mitochondrial morphological changes in human HCT-116 cells assessed as reduction in mitochondrial length measured after 6 hrs by confocal microscopic analysis relative to control; assay type: functional; set-up: scale not given: the % may be the effect or the level left
HCT-116 [21] = assay: Induction of DNA damage in human HCT-116 cells assessed as increase in H2AX phosphorylation measured after 24 to 72 hrs by immunofluorescence analysis; assay type: functional, cell-based; settings: time 24-72 hrs
HCT-116 [22] = assay: Induction of cell senescence in human HCT-116 cells assessed by increase SA-beta-Gal activity measured after 24 to 48 hrs by microscopic analysis; assay type: functional, cell-based; settings: time 24-48 hrs
HCT-116 [23] = assay: Induction of cell cycle arrest in human HCT-116 cells assessed as increase in G2/M phase at IC50 measured after 24 hrs by flow cytometry; assay type: functional, cell-based
HCT-116 [24] = assay: Induction of cell cycle arrest in human HCT-116 cells assessed as moderate increase in S phase at IC50 measured after 24 hrs by flow cytometry; assay type: functional, cell-based
HCT-116 [25] = assay: Induction of cell cycle arrest in human HCT-116 cells assessed as slight increase in G0/G1 phase at IC50 measured after 24 hrs by flow cytometry; assay type: functional, cell-based
A549 [26] = assay: Induction of cell cycle arrest in human A549 cells assessed as increase in G2/M phase at IC50 measured after 24 hrs by flow cytometry; assay type: functional, cell-based
A549 [27] = assay: Induction of cell cycle arrest in human A549 cells assessed as moderate increase in S phase at IC50 measured after 24 hrs by flow cytometry; assay type: functional, cell-based
A549 [28] = assay: Induction of cell cycle arrest in human A549 cells assessed as slight increase in G0/G1 phase at IC50 measured after 24 hrs by flow cytometry; assay type: functional, cell-based
U2OS [29] = assay: Induction of cell cycle arrest in human U2OS cells assessed as increase in G2/M phase at IC50 measured after 24 hrs by flow cytometry; assay type: functional, cell-based
U2OS [30] = assay: Induction of cell cycle arrest in human U2OS cells assessed as moderate increase in S phase at IC50 measured after 24 hrs by flow cytometry; assay type: functional, cell-based
U2OS [31] = assay: Induction of cell cycle arrest in human U2OS cells assessed as slight increase in G0/G1 phase at IC50 measured after 24 hrs by flow cytometry; assay type: functional, cell-based
HCT-116 [32] = assay: Induction of cell cycle arrest in human HCT-116 cells assessed as increase in number of cells at S phase at IC50 measured after 72 hrs by flow cytometry; assay type: functional, cell-based
A549 [33] = assay: Induction of cell cycle arrest in human A549 cells assessed as increase in number of cells at G2/M phase at IC50 measured after 24 to 48 hrs by flow cytometry; assay type: functional, cell-based; settings: time 24-48 hrs
A549 [34] = assay: Induction of cell cycle arrest in human A549 cells assessed as increase in number of cells at S phase at IC50 measured after 72 hrs by flow cytometry; assay type: functional, cell-based
HCT-116 [35] = assay: Induction of apoptosis in human HCT-116 cells assessed as early apoptotic cells at IC50 measured after 6 hrs by Annexin-V-FITC/propidium iodide staining based flow cytometry; assay type: functional
U2OS [36] = assay: Induction of DNA damage in human U2OS cells assessed as increase in H2AX phosphorylation measured after 48 hrs by immunofluorescence analysis relative to control; assay type: functional
U2OS [37] = assay: Induction of DNA damage in human U2OS cells assessed as increase in H2AX phosphorylation measured after 72 hrs by immunofluorescence analysis relative to control; assay type: functional

CCOC(=O)c1c(O)c(NC(=O)c2ccc(C)o2)cc2c1[nH]c1ccccc12
> 50 µM: IC50 (HCT-116 [1]) | IC50 (A549 [2]) | IC50 (MCF7) | IC50 (U2OS [3]) | IC50 (HepG2) | IC50 at 72 h [4]

CCOC(=O)CC(=O)C(Cc1c[nH]c2ccccc12)NC(=O)OC(C)(C)C (configuration not stated)
> 50 µM: IC50 (HCT-116 [1]) | IC50 (A549 [2]) | IC50 (MCF7) | IC50 (U2OS [3]) | IC50 (HepG2) | IC50 at 72 h [4]

CCOC(=O)c1c(O)c(NC(=O)OC(C)(C)C)cc2c1[nH]c1ccccc12
1.16%: Activity (HCT-116 [12])
50.34%: Activity (HCT-116 [20])
19.6%: Activity (HCT-116 [14])
10.7 µM: IC50 (HCT-116 [1])
15.7 µM: IC50 (U2OS [3])
Active: Drug uptake [6]
active: inhibition (U2OS [5]) | inhibition (HCT-116 [7]) | inhibition (HCT-116 [8]) | inhibition (U2OS [10]) | Activity (HCT-116 [11]) | Activity (HCT-116 [13]) | Activity (U2OS [15]) | Activity (HCT-116 [16]) | Activity (U2OS [17]) | Activity (HCT-116 [18]) | Activity (U2OS [19]) | Activity (HCT-116 [21]) | Activity (HCT-116 [22])
57%: inhibition at 10 µM (HCT-116 [9])
> 50 µM: IC50 (A549 [2]) | IC50 (MCF7) | IC50 (HepG2) | IC50 at 72 h [4]

CCOC(=O)Nc1cc2c([nH]c3ccccc32)c(C(=O)OCC)c1O
> 50 µM: IC50 (HCT-116 [1]) | IC50 (MCF7) | IC50 (U2OS [3]) | IC50 (HepG2) | IC50 at 72 h [4]
16.9 µM: IC50 (A549 [2])

CCOC(=O)c1c(OC(=O)c2ccc(C)o2)c(NC(=O)c2ccc(C)o2)cc2c1[nH]c1ccc(NC(=O)c3ccc(C)o3)cc12
> 50 µM: IC50 (HCT-116 [1]) | IC50 (A549 [2]) | IC50 (MCF7) | IC50 (U2OS [3]) | IC50 (HepG2) | IC50 at 72 h [4]

CCOC(=O)c1c(O)c(NC(C)=O)cc2c1[nH]c1ccccc12
> 50 µM: IC50 (HCT-116 [1]) | IC50 (A549 [2]) | IC50 (MCF7) | IC50 (U2OS [3]) | IC50 (HepG2) | IC50 at 72 h [4]

O=c1[nH]cc(F)c(=O)[nH]1 [FLUOROURACIL]
13 µM: IC50 (U2OS [3])
19 µM: IC50 (HepG2)
8.12 µM: IC50 (A549 [2])
5.78 µM: IC50 (HCT-116 [1])
8.41 µM: IC50 (MCF7)
41 µM: IC50 at 72 h [4]

CCOC(=O)c1c(O)c(NC(=O)OC(C)(C)C)cc2c1[nH]c1ccc(NC(=O)OC(C)(C)C)cc12
> 50 µM: IC50 (HCT-116 [1]) | IC50 (A549 [2]) | IC50 (MCF7) | IC50 (U2OS [3]) | IC50 (HepG2) | IC50 at 72 h [4]

CCOC(=O)c1c(O)c(NC(=O)OC(C)(C)C)cc2c1[nH]c1ccc(OC(C)=O)cc12
37.5 µM: IC50 (U2OS [3])
46.4 µM: IC50 (HCT-116 [1])
> 50 µM: IC50 (A549 [2]) | IC50 (MCF7) | IC50 (HepG2) | IC50 at 72 h [4]

CCOC(=O)c1c(O)c(NC(=O)c2ccc(CC)o2)cc2c1[nH]c1ccccc12
> 50 µM: IC50 (HCT-116 [1]) | IC50 (A549 [2]) | IC50 (MCF7) | IC50 (U2OS [3]) | IC50 (HepG2) | IC50 at 72 h [4]

CC(C)(C)OC(=O)Nc1cc2c([nH]c3ccccc32)c(C(=O)O)c1O
64.4%: inhibition at 10 µM (HCT-116 [9])
3.75 µM: IC50 (HCT-116 [1])
64.2%: Activity (HCT-116 [14])
2.34 µM: IC50 (U2OS [3])
36.71%: Activity (HCT-116 [20])
> 50 µM: IC50 (MCF7) | IC50 (HepG2) | IC50 at 72 h [4]
51%: Activity (U2OS [36])
11.5 µM: IC50 (A549 [2])
11.23%: Activity (HCT-116 [35])
2.38%: Activity (HCT-116 [12])
68.2%: Activity (U2OS [37])
active: Activity (HCT-116 [23]) | Activity (HCT-116 [24]) | Activity (HCT-116 [25]) | Activity (A549 [26]) | Activity (A549 [27]) | Activity (A549 [28]) | Activity (U2OS [29]) | Activity (U2OS [30]) | Activity (U2OS [31]) | Activity (HCT-116 [32]) | Activity (A549 [33]) | Activity (A549 [34]) | inhibition (U2OS [5]) | inhibition (HCT-116 [7]) | inhibition (HCT-116 [8]) | inhibition (U2OS [10]) | Activity (HCT-116 [11]) | Activity (HCT-116 [13]) | Activity (U2OS [15]) | Activity (HCT-116 [16]) | Activity (U2OS [17]) | Activity (HCT-116 [18]) | Activity (U2OS [19]) | Activity (HCT-116 [21]) | Activity (HCT-116 [22])
Active: Drug uptake [6]
